{"source": "paper PMC6199744", "about": "“Development of Chemical Proteomics for the Folateome and Analysis of the Kinetoplastid Folateome” (ACS Infectious Diseases, 2018)", "format_in_all_cases": "binding", "key": {"[1]": {"target": "T1, HeLa cell extract proteins (Homo sapiens, UniProt P30086)", "T1 construct": "endogenous in cells; host or cells: HeLa cell extract", "T1 sequence (P30086 whole entry)": "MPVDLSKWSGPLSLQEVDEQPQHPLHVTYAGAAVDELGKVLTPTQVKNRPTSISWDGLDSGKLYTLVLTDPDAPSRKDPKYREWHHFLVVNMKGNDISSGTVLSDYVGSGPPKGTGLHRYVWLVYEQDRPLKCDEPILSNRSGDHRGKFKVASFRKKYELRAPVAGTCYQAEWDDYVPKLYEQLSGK"}, "[2]": {"target": "T2, HeLa cell extract proteins (Homo sapiens, UniProt Q92973)", "T2 construct": "endogenous in cells; host or cells: HeLa cell extract", "T2 sequence (Q92973 1-898)": "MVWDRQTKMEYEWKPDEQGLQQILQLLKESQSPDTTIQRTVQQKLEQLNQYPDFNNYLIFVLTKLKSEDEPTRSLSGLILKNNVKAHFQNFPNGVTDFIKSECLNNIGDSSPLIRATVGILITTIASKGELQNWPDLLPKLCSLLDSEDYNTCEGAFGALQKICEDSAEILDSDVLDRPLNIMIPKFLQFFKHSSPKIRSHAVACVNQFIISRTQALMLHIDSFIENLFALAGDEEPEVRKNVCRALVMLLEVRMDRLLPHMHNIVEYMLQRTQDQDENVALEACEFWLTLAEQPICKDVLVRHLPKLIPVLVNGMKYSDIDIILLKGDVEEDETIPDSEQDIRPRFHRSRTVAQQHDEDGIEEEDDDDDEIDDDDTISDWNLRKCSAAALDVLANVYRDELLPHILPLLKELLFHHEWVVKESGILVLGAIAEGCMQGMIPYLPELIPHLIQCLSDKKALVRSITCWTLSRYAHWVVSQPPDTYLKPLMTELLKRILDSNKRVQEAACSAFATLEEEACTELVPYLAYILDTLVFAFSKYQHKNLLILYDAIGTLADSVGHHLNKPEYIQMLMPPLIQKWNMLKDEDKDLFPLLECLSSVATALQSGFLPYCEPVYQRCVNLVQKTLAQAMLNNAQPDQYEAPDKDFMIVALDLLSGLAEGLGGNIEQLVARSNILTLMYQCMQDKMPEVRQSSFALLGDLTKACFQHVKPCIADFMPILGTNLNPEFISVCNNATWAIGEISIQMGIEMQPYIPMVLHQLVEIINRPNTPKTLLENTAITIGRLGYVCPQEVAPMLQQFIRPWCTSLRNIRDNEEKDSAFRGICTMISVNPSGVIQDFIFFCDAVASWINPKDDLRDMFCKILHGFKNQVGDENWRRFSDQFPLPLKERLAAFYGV"}, "[3]": {"target": "T3, HeLa cell extract proteins (Homo sapiens, UniProt P54136)", "T3 construct": "endogenous in cells; host or cells: HeLa cell extract", "T3 sequence (P54136 1-660)": "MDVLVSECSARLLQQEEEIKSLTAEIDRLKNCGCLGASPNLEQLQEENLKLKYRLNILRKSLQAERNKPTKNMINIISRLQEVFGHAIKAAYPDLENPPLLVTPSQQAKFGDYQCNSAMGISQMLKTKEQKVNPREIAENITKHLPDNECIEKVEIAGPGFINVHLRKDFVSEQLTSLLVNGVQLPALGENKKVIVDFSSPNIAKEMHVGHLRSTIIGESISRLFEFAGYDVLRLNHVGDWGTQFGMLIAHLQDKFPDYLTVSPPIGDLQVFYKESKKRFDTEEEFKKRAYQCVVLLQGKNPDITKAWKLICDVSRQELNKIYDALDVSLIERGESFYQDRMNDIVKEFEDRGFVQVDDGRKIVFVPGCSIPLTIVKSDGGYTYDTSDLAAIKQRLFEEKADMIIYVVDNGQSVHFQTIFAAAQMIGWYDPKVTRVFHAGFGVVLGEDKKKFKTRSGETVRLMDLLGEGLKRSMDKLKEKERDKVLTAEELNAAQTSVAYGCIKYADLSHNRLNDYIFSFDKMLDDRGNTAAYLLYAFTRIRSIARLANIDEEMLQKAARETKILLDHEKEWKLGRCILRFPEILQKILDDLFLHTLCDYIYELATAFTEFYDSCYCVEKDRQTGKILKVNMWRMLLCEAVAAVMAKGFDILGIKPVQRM"}, "[4]": {"target": "T4, HeLa cell extract proteins (Homo sapiens, UniProt P32119)", "T4 construct": "endogenous in cells; host or cells: HeLa cell extract", "T4 sequence (P32119 1-198)": "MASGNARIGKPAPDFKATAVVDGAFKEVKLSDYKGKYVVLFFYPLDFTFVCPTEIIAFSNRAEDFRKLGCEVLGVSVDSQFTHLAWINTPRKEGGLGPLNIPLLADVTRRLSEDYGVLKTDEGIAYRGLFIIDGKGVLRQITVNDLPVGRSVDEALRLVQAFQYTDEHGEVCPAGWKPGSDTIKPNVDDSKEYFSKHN"}, "[5]": {"target": "T5, HeLa cell extract proteins (Homo sapiens, UniProt P31948)", "T5 construct": "endogenous in cells; host or cells: HeLa cell extract", "T5 sequence (P31948 whole entry)": "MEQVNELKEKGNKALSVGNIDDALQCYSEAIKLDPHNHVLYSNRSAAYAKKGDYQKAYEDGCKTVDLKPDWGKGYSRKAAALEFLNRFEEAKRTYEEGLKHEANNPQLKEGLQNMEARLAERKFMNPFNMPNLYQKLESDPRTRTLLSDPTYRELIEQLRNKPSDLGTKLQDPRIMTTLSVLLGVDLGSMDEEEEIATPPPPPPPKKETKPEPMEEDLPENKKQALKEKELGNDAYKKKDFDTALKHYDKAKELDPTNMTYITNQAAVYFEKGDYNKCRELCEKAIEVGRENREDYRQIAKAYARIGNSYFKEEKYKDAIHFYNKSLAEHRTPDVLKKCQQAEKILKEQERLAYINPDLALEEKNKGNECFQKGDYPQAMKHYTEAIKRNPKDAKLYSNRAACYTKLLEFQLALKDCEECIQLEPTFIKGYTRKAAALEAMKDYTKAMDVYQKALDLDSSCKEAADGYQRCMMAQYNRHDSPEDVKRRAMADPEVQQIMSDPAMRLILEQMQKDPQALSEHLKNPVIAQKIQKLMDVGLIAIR"}, "[6]": {"target": "T6, HeLa cell extract proteins (Homo sapiens, UniProt P40616)", "T6 construct": "endogenous in cells; host or cells: HeLa cell extract", "T6 sequence (P40616 1-181)": "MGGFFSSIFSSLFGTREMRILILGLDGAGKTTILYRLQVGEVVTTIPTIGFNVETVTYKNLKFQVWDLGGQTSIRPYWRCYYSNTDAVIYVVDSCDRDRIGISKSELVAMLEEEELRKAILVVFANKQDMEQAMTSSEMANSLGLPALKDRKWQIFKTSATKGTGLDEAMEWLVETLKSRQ"}, "[7]": {"target": "T7, HeLa cell extract proteins (Homo sapiens, UniProt O95831)", "T7 construct": "endogenous in cells; host or cells: HeLa cell extract", "T7 sequence (O95831 102-613)": "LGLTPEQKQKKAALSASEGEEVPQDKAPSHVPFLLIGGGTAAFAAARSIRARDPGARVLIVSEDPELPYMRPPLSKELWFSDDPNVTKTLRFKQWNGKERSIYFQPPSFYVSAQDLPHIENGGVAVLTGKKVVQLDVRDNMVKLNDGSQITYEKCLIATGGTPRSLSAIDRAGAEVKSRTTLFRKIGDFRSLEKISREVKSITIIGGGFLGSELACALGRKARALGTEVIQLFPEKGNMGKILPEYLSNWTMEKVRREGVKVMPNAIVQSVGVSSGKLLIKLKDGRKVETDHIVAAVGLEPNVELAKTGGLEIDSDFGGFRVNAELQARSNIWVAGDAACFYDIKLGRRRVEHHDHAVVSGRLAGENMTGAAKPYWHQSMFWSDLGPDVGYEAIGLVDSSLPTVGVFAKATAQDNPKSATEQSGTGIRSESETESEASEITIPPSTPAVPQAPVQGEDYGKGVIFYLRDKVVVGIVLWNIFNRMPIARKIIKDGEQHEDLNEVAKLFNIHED"}, "[8]": {"target": "T8, HeLa cell extract proteins (Homo sapiens, UniProt Q13263)", "T8 construct": "endogenous in cells; host or cells: HeLa cell extract", "T8 sequence (Q13263 whole entry)": "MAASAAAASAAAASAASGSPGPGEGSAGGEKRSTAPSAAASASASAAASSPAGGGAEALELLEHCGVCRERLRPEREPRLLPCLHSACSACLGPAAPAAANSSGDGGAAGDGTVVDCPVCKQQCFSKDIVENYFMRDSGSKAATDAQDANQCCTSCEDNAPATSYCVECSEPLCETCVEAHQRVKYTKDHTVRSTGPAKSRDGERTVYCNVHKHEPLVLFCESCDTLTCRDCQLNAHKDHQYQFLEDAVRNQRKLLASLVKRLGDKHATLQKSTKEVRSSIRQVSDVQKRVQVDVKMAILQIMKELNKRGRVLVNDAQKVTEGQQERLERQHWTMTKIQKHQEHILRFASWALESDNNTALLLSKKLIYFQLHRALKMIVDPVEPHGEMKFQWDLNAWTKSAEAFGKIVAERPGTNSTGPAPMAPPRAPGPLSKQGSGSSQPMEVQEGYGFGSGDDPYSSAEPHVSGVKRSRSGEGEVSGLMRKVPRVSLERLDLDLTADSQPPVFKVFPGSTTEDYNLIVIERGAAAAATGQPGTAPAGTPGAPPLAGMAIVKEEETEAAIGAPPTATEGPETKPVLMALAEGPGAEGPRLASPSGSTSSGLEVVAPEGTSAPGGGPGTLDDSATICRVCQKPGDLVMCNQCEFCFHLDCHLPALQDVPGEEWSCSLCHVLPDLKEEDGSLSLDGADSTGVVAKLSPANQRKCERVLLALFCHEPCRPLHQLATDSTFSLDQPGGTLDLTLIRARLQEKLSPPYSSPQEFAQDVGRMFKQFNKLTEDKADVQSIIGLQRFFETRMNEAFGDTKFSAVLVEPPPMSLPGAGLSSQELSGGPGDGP"}, "[9]": {"target": "T9, HeLa cell extract proteins (Homo sapiens, UniProt Q9BQA1)", "T9 construct": "endogenous in cells; host or cells: HeLa cell extract", "T9 sequence (Q9BQA1 whole entry)": "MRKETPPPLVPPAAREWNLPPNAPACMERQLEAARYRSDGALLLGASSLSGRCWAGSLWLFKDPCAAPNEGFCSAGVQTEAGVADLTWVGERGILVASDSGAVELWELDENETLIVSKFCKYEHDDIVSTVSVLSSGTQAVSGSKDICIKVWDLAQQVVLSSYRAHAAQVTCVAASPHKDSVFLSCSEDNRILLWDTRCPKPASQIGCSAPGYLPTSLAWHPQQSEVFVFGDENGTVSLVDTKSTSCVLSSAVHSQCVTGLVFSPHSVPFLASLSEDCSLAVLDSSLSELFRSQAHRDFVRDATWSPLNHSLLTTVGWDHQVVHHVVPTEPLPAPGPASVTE"}, "[10]": {"target": "T10, HeLa cell extract proteins (Homo sapiens, UniProt P00441)", "T10 construct": "endogenous in cells; host or cells: HeLa cell extract", "T10 sequence (P00441 whole entry)": "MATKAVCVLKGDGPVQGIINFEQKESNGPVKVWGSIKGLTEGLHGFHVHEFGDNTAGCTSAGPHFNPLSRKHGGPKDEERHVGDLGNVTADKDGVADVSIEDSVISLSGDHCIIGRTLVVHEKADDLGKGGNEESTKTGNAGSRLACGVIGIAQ"}, "[11]": {"target": "T11, HeLa cell extract proteins (Homo sapiens, UniProt P31947)", "T11 construct": "endogenous in cells; host or cells: HeLa cell extract", "T11 sequence (P31947 1-248)": "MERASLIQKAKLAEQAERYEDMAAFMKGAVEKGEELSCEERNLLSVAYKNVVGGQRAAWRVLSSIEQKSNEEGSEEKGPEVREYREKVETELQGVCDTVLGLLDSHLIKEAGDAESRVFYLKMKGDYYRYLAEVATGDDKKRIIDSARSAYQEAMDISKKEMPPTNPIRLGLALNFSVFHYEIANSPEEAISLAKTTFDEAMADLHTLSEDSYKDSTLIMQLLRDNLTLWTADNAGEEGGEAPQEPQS"}, "[12]": {"target": "T12, HeLa cell extract proteins (Homo sapiens, UniProt P62633)", "T12 construct": "endogenous in cells; host or cells: HeLa cell extract", "T12 sequence (P62633 whole entry)": "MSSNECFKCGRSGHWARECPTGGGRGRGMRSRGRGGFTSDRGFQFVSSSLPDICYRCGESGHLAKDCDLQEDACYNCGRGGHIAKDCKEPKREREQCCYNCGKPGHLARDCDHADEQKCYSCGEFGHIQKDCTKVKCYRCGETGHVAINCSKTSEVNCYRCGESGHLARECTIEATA"}, "[13]": {"target": "T13, HeLa cell extract proteins (Homo sapiens, UniProt Q9H0N5)", "T13 construct": "endogenous in cells; host or cells: HeLa cell extract", "T13 sequence (Q9H0N5 whole entry)": "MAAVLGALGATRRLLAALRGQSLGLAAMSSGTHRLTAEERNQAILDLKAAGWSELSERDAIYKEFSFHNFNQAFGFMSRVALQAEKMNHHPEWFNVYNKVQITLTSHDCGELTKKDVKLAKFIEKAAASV"}}, "note": "Where two headings read alike, the source gives them in different places."}
{"smiles": "Nc1nc2cccc(-c3ccccc3)c2n1Cc1ccc(Cl)c(Cl)c1", "note": "[compound 3]", "values": [{"measurement": "fold changes relative to vehicle control", "setting": "[1]; protein PEBP1, HeLa", "value": 1.08}, {"measurement": "fold changes relative to vehicle control", "setting": "[2]; protein TNPO1, HeLa", "value": 1}, {"measurement": "fold changes relative to vehicle control", "setting": "[3]; protein RARS, HeLa", "value": 0.94}, {"measurement": "fold changes relative to vehicle control", "setting": "[4]; protein PRDX2, HeLa", "value": 0.89}, {"measurement": "fold changes relative to vehicle control", "setting": "[5]; protein STIP1, HeLa", "value": 0.87}, {"measurement": "fold changes relative to vehicle control", "setting": "[6]; captured protein ARL1, HeLa", "value": 1.06}, {"measurement": "fold changes relative to vehicle control", "setting": "[7]; captured protein AIFM1, HeLa", "value": 0.92}, {"measurement": "fold changes relative to vehicle control", "setting": "[8]; protein TRIM28, HeLa", "value": 1.02}, {"measurement": "fold changes relative to vehicle control", "setting": "[9]; protein WDR77, HeLa", "value": 1}, {"measurement": "fold changes relative to vehicle control", "setting": "[10]; protein SOD1, HeLa", "value": 0.8}, {"measurement": "fold changes relative to vehicle control", "setting": "[11]; protein SFN, HeLa", "value": 0.82}, {"measurement": "fold changes relative to vehicle control", "setting": "[12]; protein CNBP, HeLa", "value": 0.83}, {"measurement": "fold changes relative to vehicle control", "setting": "[13]; captured protein PCBD2, HeLa", "value": 1}]}
{"smiles": "NCCOCCOCC(=O)Nc1nc2ncc(CNc3ccc(C(=O)NC(CCC(=O)O)C(=O)O)cc3)nc2c(=O)[nH]1", "note": "(stereo not shown) [compound 6]", "values": [{"measurement": "fold changes relative to vehicle control", "setting": "[1]; HeLa, protein PEBP1", "value": 1.42}, {"measurement": "fold changes relative to vehicle control", "setting": "[2]; HeLa, protein TNPO1", "value": 1.03}, {"measurement": "fold changes relative to vehicle control", "setting": "[3]; HeLa, captured protein RARS", "value": 0.99}, {"measurement": "fold changes relative to vehicle control", "setting": "[4]; HeLa, captured protein PRDX2", "value": 1.18}, {"measurement": "fold changes relative to vehicle control", "setting": "[5]; protein STIP1, HeLa", "value": 1.13}, {"measurement": "fold changes relative to vehicle control", "setting": "[6]; protein ARL1, HeLa", "value": 0.9}, {"measurement": "fold changes relative to vehicle control", "setting": "[7]; protein AIFM1, HeLa", "value": 0.99}, {"measurement": "fold changes relative to vehicle control", "setting": "[8]; protein TRIM28, HeLa", "value": 1.02}, {"measurement": "fold changes relative to vehicle control", "setting": "[9]; HeLa, protein WDR77", "value": 1.03}, {"measurement": "fold changes relative to vehicle control", "setting": "[10]; HeLa, protein SOD1", "value": 1.44}, {"measurement": "fold changes relative to vehicle control", "setting": "[11]; HeLa, protein SFN", "value": 1.45}, {"measurement": "fold changes relative to vehicle control", "setting": "[12]; HeLa, captured protein CNBP", "value": 1.3}, {"measurement": "fold changes relative to vehicle control", "setting": "[13]; HeLa, captured protein PCBD2", "value": 1.02}]}
{"smiles": "Nc1nc2[nH]cc(CCc3ccc(C(=O)N[C@@H](CCC(=O)O)C(=O)O)cc3)c2c(=O)[nH]1", "note": "[PTX, pemetrexed]", "values": [{"measurement": "fold changes relative to vehicle control", "setting": "[1]", "value": 1.14}, {"measurement": "fold changes relative to vehicle control", "setting": "[2]", "value": 0.94}, {"measurement": "fold changes relative to vehicle control", "setting": "[3]", "value": 0.93}, {"measurement": "fold changes relative to vehicle control", "setting": "[4]", "value": 1.17}, {"measurement": "fold changes relative to vehicle control", "setting": "[5]", "value": 1.01}, {"measurement": "fold changes relative to vehicle control", "setting": "[6]", "value": 0.77}, {"measurement": "fold changes relative to vehicle control", "setting": "[7]", "value": 1.01}, {"measurement": "fold changes relative to vehicle control", "setting": "[8]", "value": 0.97}, {"measurement": "fold changes relative to vehicle control", "setting": "[9]", "value": 0.81}, {"measurement": "fold changes relative to vehicle control", "setting": "[10]", "value": 1.22}, {"measurement": "fold changes relative to vehicle control", "setting": "[11]", "value": 1.28}, {"measurement": "fold changes relative to vehicle control", "setting": "[12]", "value": 1.14}, {"measurement": "fold changes relative to vehicle control", "setting": "[13]", "value": 0.99}]}
{"smiles": "Nc1nc2c(c(=O)[nH]1)N(C=O)C(CNc1ccc(C(=O)N[C@@H](CCC(=O)O)C(=O)O)cc1)CN2", "note": "(stereo partly shown) [LEU, leucovorin]", "values": [{"measurement": "fold changes relative to vehicle control", "setting": "[1]; HeLa, protein PEBP1", "value": 0.89}, {"measurement": "fold changes relative to vehicle control", "setting": "[2]; HeLa, protein TNPO1", "value": 0.98}, {"measurement": "fold changes relative to vehicle control", "setting": "[3]; HeLa, captured protein RARS", "value": 0.97}, {"measurement": "fold changes relative to vehicle control", "setting": "[4]; HeLa, captured protein PRDX2", "value": 1.05}, {"measurement": "fold changes relative to vehicle control", "setting": "[5]; protein STIP1, HeLa", "value": 0.97}, {"measurement": "fold changes relative to vehicle control", "setting": "[6]; protein ARL1, HeLa", "value": 0.8}, {"measurement": "fold changes relative to vehicle control", "setting": "[7]; protein AIFM1, HeLa", "value": 1.01}, {"measurement": "fold changes relative to vehicle control", "setting": "[8]; protein TRIM28, HeLa", "value": 0.88}, {"measurement": "fold changes relative to vehicle control", "setting": "[9]; HeLa, protein WDR77", "value": 0.83}, {"measurement": "fold changes relative to vehicle control", "setting": "[10]; HeLa, protein SOD1", "value": 1.01}, {"measurement": "fold changes relative to vehicle control", "setting": "[11]; HeLa, protein SFN", "value": 1.07}, {"measurement": "fold changes relative to vehicle control", "setting": "[12]; HeLa, captured protein CNBP", "value": 0.98}, {"measurement": "fold changes relative to vehicle control", "setting": "[13]; HeLa, captured protein PCBD2", "value": 1.14}]}
